# Test results reported in US20070128217A1 (priority 2003, published 2007).
# Legend:
# [1] = system: rabbit serum obtained by immunizing a rabbit with the SARS-CoV strain Frankfurt 1; assay type: binding; set-up: Binding of a rabbit serum to linear peptides / Binding of a rabbit serum to looped peptides / Rabbit serum linear peptides / Rabbit serum looped peptides / Binding of a rabbit serum to linear peptides of protein N of SARS-CoV Urbani (Rabbit serum linear peptides) / Binding of a rabbit serum to looped/cyclic peptides of protein N of SARS-CoV Urbani (Rabbit serum looped peptides): unit not given here
# [2] = system: control sera (pooled serum of ten healthy LUMC hospital workers; commercial negative donor pooled serum from the Dutch bloodbank); assay type: binding, human; set-up: Binding of Control serum LUMC to linear peptides / Binding of Control serum Blood-bank to linear peptides / Binding of Control serum LUMC to looped peptides / Binding of Control Serum Blood-Bank to Looped peptides / Binding of Control serum LUMC to linear peptides of the protein M of SARS-CoV Urbani / Binding of Control serum Blood-bank to linear peptides of the protein M of SARS-CoV Urbani / Binding of Control serum LUMC to looped peptides of the protein M of SARS-CoV Urbani / Binding of Control Serum Blood-Bank to Looped peptides of the protein M of SARS-CoV Urbani: unit not given here
# [3] = system: recombinant human anti-SARS-CoV antibody 03-018; assay type: binding; set-up: Binding of antibody 03-018 to linear peptides of the N protein of SARS-CoV Urbani / Binding of antibody 03-018 to looped/cyclic peptides of the N protein of SARS-CoV Urbani: unit not given here
# [4] = system: antibodies in sera from SARS patients (sera 1a, 1b, 2, 6, 37, 62, London, SARS-yellow, SARS-green); assay type: binding, human; set-up: Binding of serum 6 to linear peptides of protein X1 of SARS-CoV Urbani / Binding of serum 37 to linear peptides of protein X1 of SARS-CoV Urbani / Binding of serum 6 to looped/cyclic peptide (PEPSCAN-ELISA) / Binding of serum 37 to looped/cyclic peptide (PEPSCAN-ELISA) / Binding of serum 37 to looped/cyclic peptides of protein X1 of SARS-CoV Urbani / Binding of serum 6 to linear peptides of protein X2 / Binding of serum 37 to linear peptides of protein X2 / Binding of serum 37 to looped/cyclic peptides of protein X2 of SARS-CoV Urbani / Binding of serum 6 to linear peptides of protein M of SARS-CoV Urbani / Binding of serum 37 to linear peptides of protein M of SARS-CoV Urbani / Binding of serum 6 to looped/cyclic peptides of protein M of SARS-CoV Urbani / Binding of serum 37 to looped/cyclic peptides of protein M of SARS-CoV Urbani / Binding of serum 6 to linear peptides of protein X3 of SARS-CoV Urbani / Binding of serum 37 to linear peptides of protein X3 of SARS-CoV Urbani / Binding of serum 37 to looped/cyclic peptides of protein X3 of SARS-CoV Urbani / Binding of serum 6 to linear peptides of protein X4 of SARS-CoV Urbani / Binding of serum 37 to linear peptides of protein X4 of SARS-CoV Urbani / Binding of serum 37 to looped/cyclic peptides of protein X4 of SARS-CoV Urbani / Binding of serum 6 to linear peptides of protein X5 of SARS-CoV Urbani / Binding of serum 37 to linear peptides of protein X5 of SARS-CoV Urbani / Binding of serum 37 to looped/cyclic peptides of protein X5 of SARS-CoV Urbani / Binding of serum 6 to linear peptides of protein N of SARS-CoV Urbani / Binding of serum 37 to linear peptides of protein N of SARS-CoV Urbani / Binding of serum 6 to linear peptide (PEPSCAN-ELISA) / Binding of serum 1a to looped/cyclic peptides of protein N of SARS-CoV Urbani / Binding of serum 1b to looped/cyclic peptides of protein N of SARS-CoV Urbani / Binding of serum 2 to looped/cyclic peptides of protein N of SARS-CoV Urbani / Binding of serum 6 to looped/cyclic peptides of protein N of SARS-CoV Urbani / Binding of serum 37 to looped/cyclic peptides of protein N of SARS-CoV Urbani / Binding of serum 62 to looped/cyclic peptides of protein N of SARS-CoV Urbani / Binding of serum London to looped/cyclic peptides of protein N of SARS-CoV Urbani / Binding of serum SARS-green to looped/cyclic peptides of protein N of SARS-CoV Urbani: unit not given here
Sequence,Binding of a rabbit serum to linear peptides of protein N of SARS-CoV Urbani (Rabbit serum linear peptides) [1],Binding of a rabbit serum to looped/cyclic peptides of protein N of SARS-CoV Urbani (Rabbit serum looped peptides) [1],Binding of Control Serum Blood-Bank to Looped peptides [2],Binding of Control serum Blood-bank to linear peptides [2],Binding of Control serum LUMC to linear peptides [2],Binding of Control serum LUMC to looped peptides [2],Binding of antibody 03-018 to linear peptides of the N protein of SARS-CoV Urbani [3],Binding of antibody 03-018 to looped/cyclic peptides of the N protein of SARS-CoV Urbani [3],Binding of serum 1a to linear peptides of protein N of SARS-CoV Urbani [4],Binding of serum 1a to looped/cyclic peptides of protein N of SARS-CoV Urbani [4],Binding of serum 1b to linear peptides of protein N of SARS-CoV Urbani [4],Binding of serum 1b to looped/cyclic peptides of protein N of SARS-CoV Urbani [4],Binding of serum 2 to linear peptides of protein N of SARS-CoV Urbani [4],Binding of serum 2 to looped/cyclic peptides of protein N of SARS-CoV Urbani [4],Binding of serum 6 to looped/cyclic peptides of protein N of SARS-CoV Urbani [4],Binding of serum 37 to looped/cyclic peptides of protein N of SARS-CoV Urbani [4],Binding of serum 62 to looped/cyclic peptides of protein N of SARS-CoV Urbani [4],Binding of serum London to looped/cyclic peptides of protein N of SARS-CoV Urbani [4],Binding of serum SARS-green to looped/cyclic peptides of protein N of SARS-CoV Urbani [4],Binding of serum SARS-yellow to looped/cyclic peptides of protein N of SARS-CoV Urbani [4],further results
GGPTDSTDNNQNGGR,0.1,0.1,0.5,0.7,0.8,0.5,0.1,0.2,0.3,0.3,0.1,0.1,0.3,0.4,0.2,0.5,0.3,0.3,0.2,0.2,Binding of serum 6 to linear peptides of protein N of SARS-CoV Urbani [4]: 0.2; Binding of serum 37 to linear peptides of protein N of SARS-CoV Urbani [4]: 0.7; Binding of serum 62 to linear peptides of protein N of SARS-CoV Urbani [4]: 0.7; Binding of serum London to linear peptides of protein N of SARS-CoV Urbani [4]: 0.6; Binding of serum SARS-green to linear peptides of protein N of SARS-CoV Urbani [4]: 0.6; Binding of serum SARS-yellow to linear peptides of protein N of SARS-CoV Urbani [4]: 0.6
SRGGSQASSRSSSRS,0.2,0.5,0.5,0.7,0.6,0.6,0.1,0.2,–,0.4,–,0.3,–,0.3,0.3,0.5,0.3,0.3,0.2,0.2,Binding of serum 1a to linear peptide (PEPSCAN-ELISA) [4]: 0.3; Binding of serum 1b to linear peptide (PEPSCAN-ELISA) [4]: 0.1; Binding of serum 2 to linear peptide (PEPSCAN-ELISA) [4]: 0.3; Binding of serum 6 to linear peptide (PEPSCAN-ELISA) [4]: 0.4; Binding of serum 37 to linear peptide (PEPSCAN-ELISA) [4]: 0.6; Binding of serum 62 to linear peptide (PEPSCAN-ELISA) [4]: 0.7; Binding of serum London to linear peptide (PEPSCAN-ELISA) [4]: 0.4; Binding of serum SARS-green to linear peptide (PEPSCAN-ELISA) [4]: 0.1; Binding of serum SARS-yellow to linear peptide (PEPSCAN-ELISA) [4]: 0.9
SRSRGNSRNSTPGSS,0.3,0.7,0.5,0.7,0.5,0.4,0.1,0.2,–,0.5,–,0.4,–,0.3,0.1,0.3,0.3,0.3,0.0,0.0,Binding of serum 1a to linear peptide (PEPSCAN-ELISA) [4]: 1.0; Binding of serum 1b to linear peptide (PEPSCAN-ELISA) [4]: 0.6; Binding of serum 2 to linear peptide (PEPSCAN-ELISA) [4]: 0.3; Binding of serum 6 to linear peptide (PEPSCAN-ELISA) [4]: 0.2; Binding of serum 37 to linear peptide (PEPSCAN-ELISA) [4]: 0.7; Binding of serum 62 to linear peptide (PEPSCAN-ELISA) [4]: 0.7; Binding of serum London to linear peptide (PEPSCAN-ELISA) [4]: 0.5; Binding of serum SARS-green to linear peptide (PEPSCAN-ELISA) [4]: 0.4; Binding of serum SARS-yellow to linear peptide (PEPSCAN-ELISA) [4]: 0.6
PEQTQGNFGDQDLIR,0.1,0.5,0.5,0.8,0.9,0.6,0.1,0.2,–,0.4,–,0.4,–,0.4,0.2,0.6,0.4,0.4,0.4,0.6,"Recognition of the peptide by sera of SARS-CoV infected individuals, and form (linear, looped/cyclic) in which it is recognized [4]: recognized in linear form"
PEASLPYGANKEGIV,0.1,0.2,0.5,0.9,0.7,0.6,0.1,0.2,0.3,0.3,0.1,0.2,0.2,0.4,0.2,0.4,0.3,0.3,0.3,0.2,Binding of serum 6 to linear peptides of protein N of SARS-CoV Urbani [4]: 0.2; Binding of serum 37 to linear peptides of protein N of SARS-CoV Urbani [4]: 0.7; Binding of serum 62 to linear peptides of protein N of SARS-CoV Urbani [4]: 0.7; Binding of serum London to linear peptides of protein N of SARS-CoV Urbani [4]: 0.5; Binding of serum SARS-green to linear peptides of protein N of SARS-CoV Urbani [4]: 0.3; Binding of serum SARS-yellow to linear peptides of protein N of SARS-CoV Urbani [4]: 0.6
